Measured values reported in patent publication US20260199316A1, “SOLID DISPERSION, PREPARATION METHOD THEREFOR, AND USE THEREOF” (HANGZHOU GLUBIO PHARMACEUTICAL CO., LTD, priority 2022, published 2026).
In brackets after ≈: the same amount, converted by molar mass.

Key:
Format in all cases: physicochemical
[1] = Solubility of rapid solvent evaporation products in FaSSIF
Protocol: About 10 mg of the API control of the compound of formula A and 40 mg of the polymer carrier were transferred to 1 mL of DCM:EtOH=9:1 (v/v) to prepare a solution with 20% drug loading. The resulting clear solution was rapidly evaporated at 80° C. until there was no liquid to prepare a solid dispersion. The API control of the compound of formula A was also treated separately in the same manner.

[2] = Four-week solid stability study of API+HPC SSL solid dispersions
Protocol: All solid dispersions with formulation of API+HPC SSL were stored at 25° C./60% RH (open) and 40° C./75% RH (sealed). After one week and four weeks (1 w and 4 w), the sample appearance was visually observed, the crystal form change was tested by XRPD, and the sample purity was analyzed by HPLC. The results are shown in Tables 11 to 12 and FIGS. 37 to 38.

[3] = One-week solid stability study of solid dispersions
Protocol: According to Table 6, three solid dispersions, namely, formulation of API+Soluplus, formulation of API+PVP VA64, and formulation of API+HPC SSL, were stored at 25° C./60% RH (open) and 40° C./75% RH (open) for one week, the appearance of the sample was visually observed and the purity of the samples was analyzed by HPLC.
Therefore, the storage of solid dispersions should avoid exposure to high temperature and high humidity conditions to prevent chemical degradation.

solubility ([1]; 0.25 h): 0.47 mg/mL (≈ 1010 µM)
solubility ([1]; 0.5 h): 0.46 mg/mL (≈ 985 µM)
solubility ([1]; 0.75 h): 0.49 mg/mL (≈ 1050 µM)
solubility ([1]; 1 h): 0.51 mg/mL (≈ 1090 µM)
solubility ([1]; 2 h): 0.44 mg/mL (≈ 942 µM)
Contents ([2]; 25° C./60% RH open, 1 w): 96.84%
Impurities ([2]; 25° C./60% RH open, 1 w): 0.81%
RRT 0.92 ([2]; 25° C./60% RH open, 1 w): 0.05%
RRT 0.93 ([2]; 25° C./60% RH open, 1 w): 0.10%
RRT 0.95 ([2]; 25° C./60% RH open, 1 w): 0.09%
RRT 0.96 ([2]; 25° C./60% RH open, 1 w): 0.14%
RRT 1.00 ([2]; 25° C./60% RH open, 1 w): 99.20%
RRT 1.10 ([2]; 25° C./60% RH open, 1 w): 0.32%
RRT 1.17 ([2]; 25° C./60% RH open, 1 w): 0.10%
Contents ([2]; 25° C./60% RH open, 4 w): 101.1%
Impurities ([2]; 25° C./60% RH open, 4 w): 0.70%
RRT 0.92 ([2]; 25° C./60% RH open, 4 w): <LOQ
RRT 0.93 ([2]; 25° C./60% RH open, 4 w): 0.07%
RRT 0.95 ([2]; 25° C./60% RH open, 4 w): 0.09%
RRT 0.96 ([2]; 25° C./60% RH open, 4 w): 0.14%
RRT 1.00 ([2]; 25° C./60% RH open, 4 w): 99.30%
RRT 1.10 ([2]; 25° C./60% RH open, 4 w): 0.32%
RRT 1.17 ([2]; 25° C./60% RH open, 4 w): 0.09%
Contents ([2]; 40° C./75% RH sealed, 1 w): 97.46%
Impurities ([2]; 40° C./75% RH sealed, 1 w): 0.75%
RRT 0.92 ([2]; 40° C./75% RH sealed, 1 w): 0.03%
RRT 0.93 ([2]; 40° C./75% RH sealed, 1 w): 0.06%
RRT 0.95 ([2]; 40° C./75% RH sealed, 1 w): 0.09%
RRT 0.96 ([2]; 40° C./75% RH sealed, 1 w): 0.15%
RRT 1.00 ([2]; 40° C./75% RH sealed, 1 w): 99.25%
RRT 1.10 ([2]; 40° C./75% RH sealed, 1 w): 0.32%
RRT 1.17 ([2]; 40° C./75% RH sealed, 1 w): 0.09%
Contents ([2]; 40° C./75% RH sealed, 4 w): 101.2%
Impurities ([2]; 40° C./75% RH sealed, 4 w): 0.70%
RRT 0.92 ([2]; 40° C./75% RH sealed, 4 w): <LOQ
RRT 0.93 ([2]; 40° C./75% RH sealed, 4 w): 0.06%
RRT 0.95 ([2]; 40° C./75% RH sealed, 4 w): 0.09%
RRT 0.96 ([2]; 40° C./75% RH sealed, 4 w): 0.14%
RRT 1.00 ([2]; 40° C./75% RH sealed, 4 w): 99.30%
RRT 1.10 ([2]; 40° C./75% RH sealed, 4 w): 0.33%
RRT 1.17 ([2]; 40° C./75% RH sealed, 4 w): 0.09%
Impurities ([2]; Initial): 0.78%
RRT 0.92 ([2]; Initial): 0.05%
RRT 0.93 ([2]; Initial): 0.10%
RRT 0.95 ([2]; Initial): 0.09%
RRT 0.96 ([2]; Initial): 0.15%
RRT 1.00 ([2]; Initial): 99.22%
RRT 1.10 ([2]; Initial): 0.31%
RRT 1.17 ([2]; Initial): 0.09%
Appearance ([3]; 25° C./60% RH open, one week): White powder
Contents ([3]; 25° C./60% RH open, one week): 97.26%
Impurities ([3]; 25° C./60% RH open, one week): 0.72%
RRT 0.54 ([3]; 25° C./60% RH open, one week): 0.10%
RRT 0.92 ([3]; 25° C./60% RH open, one week): <LOQ
RRT 0.93 ([3]; 25° C./60% RH open, one week): 0.10%
RRT 0.95 ([3]; 25° C./60% RH open, one week): 0.09%
RRT 0.96 ([3]; 25° C./60% RH open, one week): 0.10%
RRT 1.00 ([3]; 25° C./60% RH open, one week): 99.29%
RRT 1.11 ([3]; 25° C./60% RH open, one week): 0.09%
RRT 1.18 ([3]; 25° C./60% RH open, one week): 0.17%
RRT 1.24 ([3]; 25° C./60% RH open, one week): 0.06%
Appearance ([3]; 40° C./75% RH open, one week): Slight agglomeration
Contents ([3]; 40° C./75% RH open, one week): 96.79%
Impurities ([3]; 40° C./75% RH open, one week): 1.05%
RRT 0.54 ([3]; 40° C./75% RH open, one week): 0.13%
RRT 0.92 ([3]; 40° C./75% RH open, one week): 0.12%
RRT 0.93 ([3]; 40° C./75% RH open, one week): 0.26%
RRT 0.95 ([3]; 40° C./75% RH open, one week): 0.09%
RRT 0.96 ([3]; 40° C./75% RH open, one week): 0.13%
RRT 1.00 ([3]; 40° C./75% RH open, one week): 98.95%
RRT 1.11 ([3]; 40° C./75% RH open, one week): 0.11%
RRT 1.18 ([3]; 40° C./75% RH open, one week): 0.14%
RRT 1.24 ([3]; 40° C./75% RH open, one week): 0.06%
Appearance ([3]; Initial): White powder
Impurities ([3]; Initial): 0.67%
RRT 0.54 ([3]; Initial): 0.11%
RRT 0.92 ([3]; Initial): <LOQ
RRT 0.93 ([3]; Initial): 0.09%
RRT 0.95 ([3]; Initial): 0.09%
RRT 0.96 ([3]; Initial): 0.10%
RRT 1.00 ([3]; Initial): 99.34%
RRT 1.11 ([3]; Initial): 0.07%
RRT 1.18 ([3]; Initial): 0.15%
RRT 1.24 ([3]; Initial): 0.05%
Compound: O=C1CC[C@H](N2Cc3cc(C(=O)N[C@H](c4ccc(Cl)cn4)C4CCC4)ccc3C2=O)C(=O)N1 [API control, N—((S)-(5-chloropyridin-2-yl)(cyclobutyl)methyl)-2-((S)-2,6-dioxopiperidin-3-yl)-1-oxoisoindoline-5-carboxamide]
